Measured values published in patent publication US20220409586A1, “TREATMENT AND PREVENTION OF NEUROINFLAMMATION OR AN INFLAMMATORY BRAIN DISORDER” (Inflazome Limited, priority 2019, published 2022).

Test: Study A: blood-brain barrier penetration, MetaQuant microdialysis of left and right striatum after oral administration
Assay type: in vivo, mouse (C57Bl/6)
Conditions: for average peak levels in left and right striatal dialysate: freely-moving adult male C57Bl/6 mice, corrected for dilution, not for recovery; for time of average peak levels in striatal dialysate after compound administration: mice, left and right striatum
Method: The present study was designed to determine the free concentration of the compound of formula (I) in the left and right striatum of freely-moving adult male mice after oral administration.
Adult male C57Bl/6 mice (22-28 g; Envigo, the Netherlands) were used for the experiments. Following arrival, animals were housed in groups of 5 in polypropylene cages (40×50×20 cm) with wire mesh top in a temperature (22±2° C.) and humidity (55±15%) controlled environment on a 12 hour light cycle (07.00-19.00). Following surgery, animals were housed individually (cages 30×30×40 cm). Standard diet (SDS Diets, RM1 PL) and domestic quality mains water were available ad libitum.
Mice were anesthetized using isoflurane (2% and 500 mL/min O2). Before surgery, Finadyne (1 mg/kg, s.c.) was administered for analgesia during surgery and the post-surgical recovery period. A mixture of bupivacaine and epinephrine was used for local analgesia of the incision site.
The animals were placed in a stereotaxic frame (Kopf instruments, USA). MetaQuant microdialysis probes with a 3 mm exposed polyacrylonitrile membrane (MQ-PAN 3/3) were implanted bilaterally into the left and right striatum (coordinates for the tip of the probe: AP=+0.8 mm (to bregma), ML=+/−1.7 mm (to midline), DV=−4.0 mm (to dura) with an angle of 0° and the incisor bar set at 0.0 mm. All coordinates were based on “The mouse brain in stereotaxic coordinates” by Paxinos and Franklin (2008). The probes were attached to the skull with a stainless-steel screw and dental cement.
The monosodium salt of the compound of formula (I) was formulated in sterilized tap water at concentrations (with respect to the non-salt form) of 0.2 and 4 mg/mL for oral dosing at 5 mL/kg; 1 mg/kg and 20 mg/kg, respectively.
The MetaQuant microdialysis probes were connected with flexible PEEK tubing (Western Analytical Products Inc. USA; PK005-020) to a microperfusion pump (Harvard) and perfused with a slow flow of artificial CSF (perfusate), containing 147 mM NaCl, 3.0 mM KCl, 1.2 mM CaCl2, and 1.2 mM MgCl2, at a flow rate of 0.12 μL/min and a carrier flow of UP+0.02 M FA+0.04% ascorbic acid at 0.8 μL/min. After a minimum of two hours of prestabilisation, microdialysis samples were collected in 60 minute intervals. Following collection of two baseline samples, the compound of formula (I) (1 or 20 mg/kg in sterilised tap water) was administered orally at t=0 minutes. […]
Microdialysate samples from MetaQuant probes contained a nominal volume of 55.2 μL dialysate. Levels of the compound of formula (I) in MetaQuant microdialysate samples were quantified by LC-MS/MS. […]
Suitable in-run calibration curves were fitted using weighted (1/x) regression and the sample concentrations were determined using these calibration curves. […]

average peak levels in left and right striatal dialysate (1 mg/kg oral, at 5 hours after administration): 12 to 13 nM | time of average peak levels in striatal dialysate after compound administration (1 mg/kg oral): 5 h | average peak levels in left and right striatal dialysate (20 mg/kg oral, at 6 hours after administration): 201 to 243 nM | time of average peak levels in striatal dialysate after compound administration (20 mg/kg oral): 6 h
Compound: CC(C)n1ccc(S(=O)(=O)NC(=O)Nc2c3c(cc4c2CCC4)CCC3)n1 [compound of formula (I)]
